Test system: KCNQ channels
Test: Thallium flux assay for KCNQ channel openers
Assay type: cell-based
Details: HEK-293 cells stably transfected with a KCNQ family member
Outline: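 HEK-293 lines stably expressing individual KCNQ members, loaded with BTC-AM in chloride-free buffer pH 7.3, compound added (1% DMSO final) before 7.5 mM Tl2SO4 stimulus; fluorescence read 60 s on FLIPR. Minimal active concentration at ≥4 SD above negative controls; EC50 from 10-point logistic fit.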

EC50 (thallium flux, 10 point concentration series): < 50 nM
Compound: CC(NC(=O)c1sc(-c2ccccc2F)nc1C(F)(F)F)c1cccc(OC(F)(F)F)c1 (centres unmarked) [Example 21, 2-(2-fluorophenyl)-4-(trifluoromethyl)-N-[1-[3-(trifluoromethoxy)phenyl]ethyl]-5-thiazolecarboxamide]
Min. conc. response (minimal active concentration: lowest concentration giving signal amplitude >= four standard deviations of negative controls): 0.3 µM

— US7273866B2, “2-aryl thiazole derivatives as KCNQ modulators” (Bristol-Myers Squibb Company, priority 2002, dated 2007)
